Laboratory results as given in patent US11014934B2, “Antiseptic drug” (AO “TATKHIMFARMPREPARATY”, priority 2017, dated 2021).
≈ marks a conversion by molar mass, not a printed value.

Legend:
[1] = test system: Stylonychia mytilus; experiment: Antiprotozoal activity by death of protozoa; format: cell-based; details: death of protozoa
Description: Evaluation of the antiprotozoal activity of compound I was determined by the viability of the protozoa genus of hypotrichs Stylonychia mytilus in a nutrient medium in the presence of the studied substances. A mother liquor of compound I (10 mg/ml) was prepared in a mixture of DMSO and 96% ethanol (1:1). A 1% aqueous solution of DMSO and ethyl alcohol served as a negative control, and miramistin, benzalkonium chloride, and chlorhexidine were used as reference preparations. Then, from the mother liquors by repeated dilutions with water, working solutions were prepared corresponding to doses of 5; 10; 20; 25; 50; 75; 100 and 150 μg/ml. 10 μl of culture medium with protozoa and 10 μl of a solution of the test substance were applied to a chamber slide. The experiment was done in five replicates.
Slides were examined under a light microscope, antiprotozoal activity of substances (MIC and IC50) were determined by the death of protozoa. The Hill regression model with 5 parameters was used for the analysis.

[2] = test system: E. coli CDC F-50; experiment: Antiseptic activity on rat skin; format: in vivo; details: E. coli CDC F-50 on rat skin; antiseptic concentration 0.2%; exposure time 5 min; n = 6
Description: The study of the antiseptic activity of compound I in rats […] was carried out in accordance with [R 4.2.2643-10 Metody laboratornykh issledovaniy i ispytaniy mediko-profilakticheskikh dezinfektsionnykh sredstv dlya otsenki ikh effektivnosti i bezopasnosti: Rukovodstvo.—M: Federal'nyy tsentr gigiyeny i epidemiologii Rospotrebnadzora, 2010.—S. 615. R 4.2.2643-10 Laboratory methods for the study and testing of medical prophylactic disinfectants to assess their effectiveness and safety: Guide.—M.:: Federal Center for Hygiene and Epidemiology of Rospotrebnadzor, 2010.—P. 615]. Experiments were carried out on male Wistar rats with a body weight of 180-250 g.
A culture of E. coli CDC F-50, grown on dense nutrient medium for (18-20) hours, was washed with sterile isotonic chloride solution, centrifuged at 5000 rpm for 5 minutes, the supernatant was drained and cells were resuspended with sterile isotonic sodium chloride solution.
The bacterial suspension of microorganisms was brought to a turbidity of […] according to McFarland, which corresponds to a concentration of 1.5×10^7 cells/ml.
Animals were formed in 5 groups of 6 animals each. All manipulations with animals were performed under isoflurane anesthesia (4%—induction of anesthesia (2 min, 1 l/min), 2%—basis narcosis). A portion of 5×5 cm was shaved with a hair clipper on the dorsal part of the body of the animal.
A 0.25 ml microbial suspension containing 1×10^7 CFU of E. coli CDC F-50 was applied to the shaved portion of the rat back with a dispenser and distributed with a sterile disposable spatula over the entire square area. It was left for 2-3 minutes until dry.
Then, a gauze cloth (5×5 cm) was applied to the skin of rats for 5 minutes. In the experimental group, the tissue was pre-wetted with 1 ml of 0.2% solution of compound I, and in the positive control groups, the tissue was dipped in 1 ml of 0.2% miramistin, benzalkonium chloride and chlorhexidine. In the negative control group, the cloth was immersed in 1 ml of sterile saline. […]
After the time required for the cultivation of microorganisms of this species, the results were counted according to the number of colonies grown on the Petri dish. […] After counting the number of colonies grown on Petri dishes, the density of contamination per 1 cm^2 of the surface and the percentage of disinfection were calculated, taking the number of colonies removed from control surfaces and not exposed to antiseptics action as 100%. The percentage of growth inhibition of E. coli CDC F-50 was calculated by the formula: […]

`[H]/N=C(\N/C(=N/[H])NCCCCCCNC(=N)NC(=N)Nc1ccc(Cl)cc1)Nc1ccc(Cl)cc1` [Chlorhexidine] was tested. Which IC50 ([1]; Hill regression, read-out: IC50 (95% confidence interval)) did it give?
Its IC50 is 42 µg/mL (≈ 83.1 µM).

And the MIC ([1]; read-out: MIC)?
Its MIC is 20 µg/mL (≈ 39.6 µM).

And the “Growth inhibition rate (M ± SD)” value [2]?
Its value is 95.7 ± 3.4%.
